Target: T1, Gag-Pol polyprotein [588-1027]/[588-1147] (Human immunodeficiency virus 1, UniProt P04585)
T1 construct: 588-1027; 588-1147
Assay: HIV-1 RT Assay
Settings: pH 7.8; 37 °C

CCC(C)Sc1nc(O)cc(Cc2c(Cl)cccc2Cl)n1 (stereo unspecified) [2-(butan-2-ylsulfanyl)-6-[(2,6-dichlorophenyl)methyl]-3,4-dihydropyrimidin-4-one]
IC50: 100 nM

— BindingDB's records for doi:10.1021/jm980260f (Sapienza University of Rome, 1999)
